{"source": "patent US20230103444A1", "about": "(The Regents of the University of Colorado, a Body Corporate, priority 2020, published 2023)", "key": {"[1]": {"test": "Pharmacokinetics in CD-1 mice", "details": "oral gavage (p.o.) 50 mg/kg", "description": "Whole blood was harvested at specific time points and the separated plasma frozen at −80° C. for storage or used for LC-MS/MS analysis."}, "[2]": {"test": "Mouse liver microsome stability", "details": "CD-1, mouse, liver microsomes, pH 7.4, Microsomal stability Mouse t1/2 (min), Table 6", "procedure": "Microsome stability. CD-1 mouse microsomes were commercially purchased and the reactions were performed as previously described. […] The master mix was pre-incubated at 37° C. for 5 min, then 1 mM NADPH was added to start the microsomal activity reaction and maintained at 37° C. throughout the time course. Reactions were stopped at 0, 5, 15, 30, 45, and 60 min by adding 200 μL acetonitrile and analyzed by mass spectrometry. The appropriate microsome controls were also performed in the same reaction conditions."}, "[3]": {"tested_on": "CRC102 patient-derived tumor organoids", "test": "Patient tumor organoid cytotoxicity", "type": "cell-based", "details": "Homo sapiens; single agent, Table 4A", "description": "Patient Cell Tumor Organoid Culture. CRC048 and CRC102 patient cell samples were expanded and cultured as PDTOs using reported methodologies and reagents. (Drost et al., 2016; Sato et al., 2011) Briefly, patient cells were washed with PBS, digested with TrypLE, and filtered through 100 μm cell strainer before used in 3D cell culture. Patient cells were seeded at 5,000 cells per well in 96-well plates, coated with 2% Matrigel, and allowed to self-assemble as PDTOs over 72 h.\n(§1) Tumor Organoid Cytotoxicity."}, "[4]": {"tested_on": "SW620 tumor organoids", "test": "Synergy studies with SN38 (LOEWE synergy scores)", "type": "cell-based, human", "set-up": "key to LOEWE Synergy Score: % response beyond expectation; <-10 antagonism, -10–10 additive, >10 synergy", "details": "for LOEWE Synergy Score: compound at its IC50 (6: 5 μM; 6.3, 6.11: 3 μM)", "description": "(§2) Cell based cytotoxicity dose response and combination studies. […] Plates were then incubated for 3 days before treatment.\n(e.g., synergy score 20 corresponds to 20% of response beyond expectation). According to our experience, the synergy scores near 0 gives limited confidence on synergy or antagonism.\nWhen the synergy score is: • Less than −10: the interaction between two drugs is likely to be antagonism; • From −10 to 10: the interaction between two drugs is likely to be additivity; • Larger than 10: the interaction between two drugs is likely to be synergy."}, "[5]": {"test": "Human microsomal stability", "type": "in vitro ADME", "details": "human microsomes, Table 6, read-out: Microsomal stability Human t1/2"}, "[6]": {"tested_on": "SW620 tumor organoids", "test": "Tumor organoid cytotoxicity (CellTiter-Glo 3D)", "details": "Homo sapiens"}, "[7]": {"tested_on": "SW620 tumor xenografts", "procedure": "In vivo studies. […] Body weight and tumor volumes were monitored 2×/week. […] In addition, irinotecan was administered i.p. at 50 mg/kg."}, "[8]": {"tested_on": "HCT116 tumor organoids", "test": "Tumor organoid cytotoxicity (CellTiter-Glo 3D)", "type": "cell-based, human", "details": "Homo sapiens", "description": "as §2\nCell Line Tumor Organoid Culture.\nas §1"}, "[9]": {"tested_on": "SW620 quasi-mesenchymal (GFP+) tumor xenografts", "test": "Antitumor activity by oral gavage against SW620 quasi-mesenchymal (GFP+) xenografts", "type": "in vivo, athymic nude mice", "description": "(Esquer et al., 2021) Five days after cell injection, injected mice were randomized into three groups for treatment (Tx). Group 1 (12 mice) received control treatment of gavage vehicle (10% DMSO, 90% PEG 400 (polyethylene glycol 400) by volume). […] Mice were treated once a day, 5 days a week PO (via oral gavage). Mice were weighed and tumor volume assessed twice a week by caliper measurement as illustrated in FIGS. 21A and 21B. At sacrifice, tumors were weighed and measured. In addition, gross observations on condition of mice were made and samples of plasma, tumors, liver spleen and kidneys were collected for further assessment, e.g., drug quantification and toxicity assessment."}, "[10]": {"tested_on": "CRC042 patient-derived tumor organoids", "test": "Patient tumor organoid cytotoxicity", "type": "cell-based", "details": "Homo sapiens; single agent, Table 4A"}, "[11]": {"tested_on": "SW620 tumor organoids"}, "[12]": {"details": "combination of 6.11 and irinotecan"}}, "note": "pIC50: −log10 of the molar value. Where two headings read alike, the source gives them in different places.", "data": [{"compound": "Cc1cc(Nc2ccc(NC(=O)Cc3cc(Br)cs3)cc2)nc(N2CCCC2)n1", "note": "[Compound 6.11, 2-(4-bromothiophen-2-yl)-N-(4-((6-methyl-2-(pyrrolidin-1-yl)pyrimidin-4-yl)amino)phenyl)-acetamide]", "values": [{"measurement": "oral bioavailability, uptake in the plasma", "setting": "[1]", "result": 44, "unit": "%"}, {"measurement": "half-life at 10 μM", "setting": "[2]", "result": 0.954, "unit": "h"}, {"measurement": "IC50", "setting": "[3]", "result": 8.38, "unit": "µM"}, {"measurement": "LOEWE Synergy Score", "setting": "[4]; SN38 0.64 nM", "result": 46}, {"measurement": "LOEWE Synergy Score", "setting": "[4]; SN38 16 nM", "result": 52}, {"measurement": "LOEWE Synergy Score", "setting": "[4]; SN38 80 nM", "result": 49}, {"measurement": "LOEWE Synergy Score", "setting": "[4]; SN38 400 nM", "result": 48}, {"measurement": "LOEWE Synergy Score", "setting": "[4]; SN38 2000 nM", "result": 36}, {"measurement": "LOEWE Synergy Score", "setting": "[4]; SN38 10000 nM", "result": 25}, {"measurement": "LOEWE Synergy Score", "setting": "[4]; SN38 […]", "result": 54}, {"measurement": "synergism with irinotecan (and SN38), in words", "setting": "[4]; killing SW620 tumor organoids", "result": "synergism"}, {"measurement": "half-life", "setting": "[5]", "result": 4.38, "unit": "h"}, {"measurement": "IC50", "setting": "[6]; SW-620, 72 h, read-out: 3 D Cytotoxicity 72 hr IC50 (μM) SW620", "result": 2.6, "unit": "µM"}, {"measurement": "pIC50", "setting": "[6]; SW-620, read-out: IC50 of cytotoxicity in SW620 cells", "result": "> 5.00"}, {"measurement": "IC50", "setting": "[6]; SW-620, read-out: Tumor Organoid Cytotoxicity IC50 (μM) SW620", "result": 2.6, "unit": "µM"}, {"measurement": "tumor volume, combination with irinotecan", "setting": "[7]; 6.11 1×/day + irinotecan 50 mg/kg i.p., up to 20 days, M-phenotype xenografts, vs irinotecan alone or control", "result": "significantly inhibits colorectal cancer SW620 tumor xenografts"}, {"measurement": "tumor volume after the last treatment, combination with irinotecan", "setting": "[7]; 6.11 + irinotecan vs irinotecan alone, last treatment day 33", "result": "significantly inhibits colorectal SW620 tumors beyond the last treatment"}, {"measurement": "survival of tumor-bearing mice, combination with irinotecan", "setting": "[7]; 6.11 + irinotecan, compared to irinotecan alone and control", "result": "significantly increases the survival"}, {"measurement": "difference in tumor volume, irinotecan alone vs combination, 8 days post treatment", "setting": "[7]; [12]", "result": 3.4, "unit": "fold"}, {"measurement": "drop of tumor volume post treatment", "setting": "[7]; [12]", "result": "~1.5", "unit": "fold"}, {"measurement": "IC50", "setting": "[8]; HCT-116, 72 h, Table 6, read-out: 3 D Cytotoxicity 72 hr IC50 (μM) HCT116", "result": 3.5, "unit": "µM"}, {"measurement": "IC50", "setting": "[8]; HCT-116, single agent, Table 4A, read-out: Tumor Organoid Cytotoxicity IC50 (μM) HCT116", "result": 3.48, "unit": "µM"}, {"measurement": "mouse body weight", "setting": "[9]; oral gavage 75 and 125 mg/kg vs vehicle", "result": "no significant difference in body weight"}, {"measurement": "tumor volume", "setting": "[9]; oral gavage 75 and 125 mg/kg, once a day 5 days a week, 27 days", "result": "significant dose dependent decrease in tumor volume"}, {"measurement": "IC50", "setting": "[10]", "result": 4.5, "unit": "µM"}]}, {"compound": "Cc1cc(Nc2ccc(NC(=O)Cn3cnc4ccccc43)cc2)nc(N2CCCC2)n1", "note": "[Compound 6.28, 2-(1H-benzo[d]imidazole-1-yl)-N-(4-((6-methyl-2-(pyrrolidin-1-yl)pyrimidin-4-yl)amino)phenyl) acetamide]", "values": [{"measurement": "pIC50", "setting": "[11]", "result": "< 4.52"}]}]}
